Results reported in patent US5603951A, “Cyclosporin-containing soft capsule compositions” (Hanmi Pharm. Ind. Co., Ltd., priority 1994, dated 1997).

Assay: Change in cosurfactant content of soft capsules over storage at room temperature (membrane permeation, gas chromatography)
Type: physicochemical
Description: The content of the cosurfactant in each soft capsule preparation was analyzed by gas chromatography.
Conditions of gas chromatography for each cosurfactant
Column: Ultra 2 (Crosslinked 2% phenylmethyl silicone gun phase, 25 m
× 0.32 mm, thickness 0.52 μm)
Column temperature: 230° C. (Isothermal)
Detector: FID (Temperature: 270° C.)
Injection temperature: 275° C.
Carrier gas: He (Partition ratio 80:1)
Internal standard: Octyl alcohol
Column: HP20M (Carbowax 20M) (25 m × 0.32 mm, film thickness 0.3
Column temperature: 30° C. (Isothermal)
Detector: FID (Temperature: 200° C.)
Injection temperature: 150° C.
Internal standard: Diethyl ether

Cosurfactant content reduced by, of the initial content, after 10 days (soft capsule) [%]	Change of cosurfactant content in soft capsule after 10 days (in words)	SMILES
27.8		CCO [ethanol]
	does not change in its content	CO[C@H]1CO[C@H]2[C@@H]1OC[C@H]2OC [dimethylisosorbide]
